Data: PMC5468484 (The Pediatric infectious disease journal, 2017)
“Also recorded” adds a separate entry of the source. Read-outs that look alike come from different tables or passages of the source.

Tests used:
Safety evaluation = type: in vivo, human
[1] = for Terminal half-life: study DUR001-106, single IV dose, post-hoc slope of gamma phase, three compartment model, median (range)
[2] = system: cytochrome P450 isoenzymes; conditions: cited from earlier work
clinical = conditions: human, in vivo, iv
[3] = cited from earlier work
[4] = human plasma; cited from earlier work
[5] = Long term stability of dalbavancin plasma samples; type: in vitro ADME, human; conditions: plasma (K2-EDTA), 368 days stored at −20°C, LC-MS/MS
[6] = system: acute bacterial skin and skin structure infections; conditions: adults, cited from earlier work
[7] = among the 36 treatment-emergent AEs
[8] = children 3 months to 11 years (N=34)
[9] = children 3 months to 11 years, single IV dose
[10] = nonparametric bootstrap (N=1000) of final model
[11] = three-compartment model, 43 subjects, typical value at weight 40.9 kg

CN[C@H]1C(=O)N[C@@H]2Cc3ccc(cc3)Oc3cc4cc(c3O[C@@H]3O[C@H](C(=O)O)[C@@H](O)[C@H](O)[C@H]3NC(=O)CCCCCCCCC(C)C)Oc3ccc(cc3Cl)[C@@H](O)[C@@H]3NC(=O)[C@H](NC(=O)[C@@H]4NC(=O)[C@@H](NC2=O)c2cc(cc(O)c2Cl)Oc2cc1ccc2O)c1ccc(O)c(c1)-c1c(O[C@H]2O[C@H](CO)[C@@H](O)[C@H](O)[C@@H]2O)cc(O)cc1[C@@H](C(=O)NCCCN(C)C)NC3=O [dalbavancin]
AEs deemed possibly related to dalbavancin treatment (Safety evaluation; N=1 each): rash, diaper dermatitis, urticaria, and asymptomatic hepatic enzyme elevation | Treatment-emergent AEs considered mild (Safety evaluation; [7]): 26 | Treatment-emergent AEs considered moderate (Safety evaluation; [7]): 6 | Treatment-emergent AEs considered severe (Safety evaluation; [7]): 4 | Number of treatment-emergent AEs (Safety evaluation; [8]): 36 | Serious or severe treatment-emergent AEs considered related to dalbavancin treatment (Safety evaluation; [8]): None and no serious or severe AEs related to treatment | Subjects who experienced a serious AE (Safety evaluation; [8]): Five | Deaths (Safety evaluation; [9]): no deaths were reported | Tolerability (Safety evaluation; [9]): well tolerated | AE probably related to study treatment (Safety evaluation; one subject): infusion site discomfort | Adverse events assessed as possibly or probably related to treatment (Safety evaluation; out of 36 treatment-emergent adverse events): Five | Terminal half-life ([1]; 2 years to <6 years (N=11)): 315 (271–332) h | Terminal half-life ([1]; 3 months to <2 years (N=11)): 279 (244–298) h | Terminal half-life ([1]; 6 to 11 years (N=11)): 390 (317–490) h | Power coefficient of albumin on Vc, final model estimate ([1]; (Albumin/3.7)^coefficient): −0.73 | Power coefficient of albumin on Vc, bootstrap median [1, 10]: −0.72 | Power coefficient of weight on volume parameters, bootstrap median [1, 10]: 0.95 | Power coefficient of weight on volume parameters, final model estimate ([1]; same coefficient for Vc, Vp1, Vp2, ((Weight in kg)/40.9)^coefficient): 0.95 | Vp1 (volume of distribution for peripheral compartment 1), final model estimate [1, 11]: 2.90 L | Vp2 (volume of distribution for peripheral compartment 2), final model estimate [1, 11]: 2.93 L | Substrate, inhibitor or inducer of cytochrome P450 isoenzymes [2]: not a substrate, inhibitor, or inducer | clearance (clinical): 1.05 mL/h/kg | clearance (clinical; 10 mg/kg): 1.23 mL/h/kg | clearance (clinical; 15 mg/kg): 0.795 mL/h/kg | Volume of distribution at steady-state ([3]; adults): 15.9 L | Eliminated as the parent compound in feces and urine [3]: ~ 70% | Binding to plasma proteins [4]: 93% | Long term stability of plasma samples [5]: stable | Efficacy of single 1500 mg infusion versus the 2-dose regimen ([6]; ABSSSI): as effective as the 2-dose regimen; also recorded: noninferior to the 2-dose regimen | Efficacy versus intravenous vancomycin with subsequent oral linezolid in ABSSSI ([6]; two studies, 2-dose dalbavancin regimen): not inferior; also recorded: noninferior
